# Reference: US11591326B2, “Inhibitors of protein arginine methyltransferase 5 (PRMT5), pharmaceutical products thereof, and methods thereof” (PHARMABLOCK SCIENCES (NANJING), INC., priority 2018, dated 2023)
# Test system: Z-138 tumor cells
# Experiment: Mantle cell lymphoma (MCL) Z-138 xenograft efficacy study
# Assay type: in vivo, CB-17 female SCID mice
# Conditions: administered orally BID for 21 days
# Description: For the in vivo efficacy studies, CB-17 female SCID mice (19-21 g; 10-12 weeks) were purchased from Shanghai SLAC laboratory animal CO. LTD. Each mouse was inoculated subcutaneously at the right flank with Z-138 tumor cells (5×10^6 cells/mouse, 50% Matrigel) in 0.2 mL of a mixture of base media and Matrigel (RPMI:Matrigel, 1:1) for tumor development. The treatments were started when the mean tumor size reached 121.55 mm^3, which was 11 days after inoculation. Mice were assigned into groups using a randomized block design. Testing compounds or vehicle (5% DMSO+45% PEG400+50% H2O) was administered orally BID for 21 days. Body weights were measured three times per week for the whole duration of the study. Tumor size was measured at the same schedule in two dimensions using a caliper, and the volume was expressed in cubic millimeters. Animals were euthanized 6 h after the final dose on day 21, at which time tumors were collected for analysis.
smiles,measurement,value
"CC(=O)N1CCC(Nc2ccc3c(c2)C(=O)N(C[C@H](O)CN2CCc4ccccc4C2)CCO3)CC1 [Compound 52a, (R)-7-((1-acetylpiperidin-4-yl)amino)-4-(3-(3,4-dihydroisoquinolin-2(1H)-yl)-2-hydroxypropyl)-3,4-dihydrobenzo[f][1,4]oxazepin-5(2H)-one]","result in Z-138 xenograft efficacy studies (tumor volume change, FIG. 1)",promising result
